Common to all, as to type: biochemical
Experiment [1] addresses T1, HDAC6 enzyme (Homo sapiens, UniProt Q9UBN7).
T1 construct: transducing full length HDAC1 and HDAC6 genes into Sf-9 insect cells; GST; purchased SignalChem; host or cells: Sf-9 insect cells
T1 sequence (Q9UBN7 1-1215): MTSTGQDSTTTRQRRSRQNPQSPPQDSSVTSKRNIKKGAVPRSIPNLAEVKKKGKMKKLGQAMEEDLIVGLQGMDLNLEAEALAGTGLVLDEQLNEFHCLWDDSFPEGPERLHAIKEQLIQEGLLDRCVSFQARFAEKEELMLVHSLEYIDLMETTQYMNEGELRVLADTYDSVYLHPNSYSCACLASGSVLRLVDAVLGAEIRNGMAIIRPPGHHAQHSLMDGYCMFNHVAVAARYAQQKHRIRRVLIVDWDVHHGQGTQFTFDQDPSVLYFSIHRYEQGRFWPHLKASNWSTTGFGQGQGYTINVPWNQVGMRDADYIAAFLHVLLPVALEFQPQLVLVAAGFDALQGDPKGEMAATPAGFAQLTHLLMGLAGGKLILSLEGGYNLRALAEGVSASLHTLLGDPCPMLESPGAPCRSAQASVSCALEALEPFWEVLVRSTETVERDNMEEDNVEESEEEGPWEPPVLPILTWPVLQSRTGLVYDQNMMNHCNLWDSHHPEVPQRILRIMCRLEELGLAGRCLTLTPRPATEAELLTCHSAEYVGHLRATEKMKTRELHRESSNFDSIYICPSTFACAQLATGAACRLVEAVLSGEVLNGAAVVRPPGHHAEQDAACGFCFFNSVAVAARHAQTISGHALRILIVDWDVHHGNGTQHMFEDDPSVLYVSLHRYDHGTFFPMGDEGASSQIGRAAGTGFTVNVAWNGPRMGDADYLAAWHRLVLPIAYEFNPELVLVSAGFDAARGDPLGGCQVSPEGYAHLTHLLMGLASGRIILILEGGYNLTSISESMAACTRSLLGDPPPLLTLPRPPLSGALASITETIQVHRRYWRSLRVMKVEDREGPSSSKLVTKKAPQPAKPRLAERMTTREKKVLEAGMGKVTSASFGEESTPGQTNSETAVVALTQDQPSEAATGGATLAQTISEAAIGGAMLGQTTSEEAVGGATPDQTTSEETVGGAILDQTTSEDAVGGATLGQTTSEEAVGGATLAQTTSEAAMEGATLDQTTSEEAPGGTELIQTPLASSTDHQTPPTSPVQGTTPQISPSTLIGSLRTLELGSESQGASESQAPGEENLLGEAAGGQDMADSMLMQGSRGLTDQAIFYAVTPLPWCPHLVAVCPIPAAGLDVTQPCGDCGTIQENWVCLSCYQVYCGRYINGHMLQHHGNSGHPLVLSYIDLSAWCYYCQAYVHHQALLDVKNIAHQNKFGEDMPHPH
The experiment in a line: HDAC6 enzyme inhibitory assay (HDAC-Glo I/II Assay kit). The following applies: 1 μM test compound; wells without enzyme = 100% inhibition; read-out: HDAC6 inhibitory rate (%) (1 μM). As to the method: (§1) HDAC1/6 Enzyme Inhibitory Assay
(§2) HDAC1 enzyme and HDAC6 enzyme each prepared by transducing full length HDAC1 and HDAC6 genes into Sf-9 insect cells and purifying by GST affinity column were purchased from SignalChem. Using these enzymes, HDAC1 and/or HDAC6 enzyme inhibitory activities of the compound of the present invention were evaluated. Enzymes were used after preserved at −70° C. HDAC1 or HDAC6 enzyme inhibitory activity of the compound of the present invention was measured using HDAC-Glo™ I/II Assay kit (Promega) according to the following experimental method. The test compound diluted with assay buffer (24 mM Tris-HCl (pH 7.5), 1 mM MgCl2, 0.35 mM KCl, 135 mM NaCl, 0.6 mM Glutathione, 0.01% Tween-20) was added to a 384-well plate by each 2 μL. Then, HDAC1 or HDAC6 enzyme solution diluted with assay buffer was added thereto by each 4 μL, and the plate was incubated at room temperature for 60 min. After incubated, HDAC substrate-Developer solution prepared according to Promega protocol attached to the assay kit was added to the 384-well plate by each 2 μL, and the enzyme reaction was started. After reacting at room temperature for 20 min, luminescence level was measured using plate reader Envision (PerkinElmer). The inhibitory activity of each compound was calculated as a relative activity value when luminescence level in wells without enzyme is considered as 100% inhibition.

The target in experiment [2] is T2, HDAC1 enzyme (Homo sapiens, UniProt Q13547).
T2 construct: transducing full length HDAC1 and HDAC6 genes into Sf-9 insect cells; GST; purchased SignalChem; host or cells: Sf-9 insect cells
T2 sequence (Q13547 whole entry): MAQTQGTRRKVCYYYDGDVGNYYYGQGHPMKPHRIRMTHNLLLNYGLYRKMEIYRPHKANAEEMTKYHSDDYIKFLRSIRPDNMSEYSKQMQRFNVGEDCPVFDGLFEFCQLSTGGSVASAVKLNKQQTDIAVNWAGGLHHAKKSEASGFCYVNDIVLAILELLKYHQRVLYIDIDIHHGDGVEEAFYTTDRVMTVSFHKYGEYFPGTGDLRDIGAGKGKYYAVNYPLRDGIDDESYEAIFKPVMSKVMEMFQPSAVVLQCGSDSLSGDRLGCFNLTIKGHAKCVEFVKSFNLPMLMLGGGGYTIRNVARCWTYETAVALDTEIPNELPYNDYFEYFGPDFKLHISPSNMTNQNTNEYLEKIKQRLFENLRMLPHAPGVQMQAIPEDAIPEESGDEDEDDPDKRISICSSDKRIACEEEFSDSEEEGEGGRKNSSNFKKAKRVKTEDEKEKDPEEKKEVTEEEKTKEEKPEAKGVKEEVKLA
The experiment in a line: HDAC1 enzyme inhibitory assay (HDAC-Glo I/II Assay kit). The following applies: 1 μM test compound; wells without enzyme = 100% inhibition; read-out: HDAC1 inhibitory rate (%) (1 μM). On the procedure: as §1, §2

The target of experiment [3] is T3, HDAC9 enzyme (Homo sapiens, UniProt Q9UKV0).
T3 construct: transducing full length HDAC9 gene into Sf-9 insect cells; made in house; host or cells: Sf-9 insect cells
T3 sequence (Q9UKV0 whole entry, species assumed): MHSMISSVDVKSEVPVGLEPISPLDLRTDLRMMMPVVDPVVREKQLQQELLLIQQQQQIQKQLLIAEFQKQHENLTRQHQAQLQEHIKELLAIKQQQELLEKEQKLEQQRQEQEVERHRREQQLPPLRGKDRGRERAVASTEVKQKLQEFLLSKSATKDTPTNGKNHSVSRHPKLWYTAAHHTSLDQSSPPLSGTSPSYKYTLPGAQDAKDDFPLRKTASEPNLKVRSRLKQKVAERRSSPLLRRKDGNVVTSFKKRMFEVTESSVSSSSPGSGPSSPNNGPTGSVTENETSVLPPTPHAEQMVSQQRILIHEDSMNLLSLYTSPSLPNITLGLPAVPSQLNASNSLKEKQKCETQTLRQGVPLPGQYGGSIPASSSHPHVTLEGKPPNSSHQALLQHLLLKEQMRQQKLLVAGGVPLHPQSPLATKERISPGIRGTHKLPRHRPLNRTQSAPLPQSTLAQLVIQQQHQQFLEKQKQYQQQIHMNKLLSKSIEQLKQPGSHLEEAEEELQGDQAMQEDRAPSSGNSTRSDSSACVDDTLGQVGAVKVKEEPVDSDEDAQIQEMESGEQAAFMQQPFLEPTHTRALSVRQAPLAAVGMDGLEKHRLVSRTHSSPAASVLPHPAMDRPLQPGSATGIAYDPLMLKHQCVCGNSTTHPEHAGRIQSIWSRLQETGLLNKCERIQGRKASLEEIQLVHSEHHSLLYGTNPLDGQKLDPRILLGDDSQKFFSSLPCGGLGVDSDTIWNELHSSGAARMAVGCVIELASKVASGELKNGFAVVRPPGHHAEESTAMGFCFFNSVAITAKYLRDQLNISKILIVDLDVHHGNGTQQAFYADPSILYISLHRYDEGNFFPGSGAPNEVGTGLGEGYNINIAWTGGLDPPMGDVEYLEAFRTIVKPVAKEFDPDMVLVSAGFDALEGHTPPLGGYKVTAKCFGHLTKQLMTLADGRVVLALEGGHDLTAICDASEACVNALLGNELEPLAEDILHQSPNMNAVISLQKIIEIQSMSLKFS
In words: HDAC9 enzyme inhibitory assay (HDAC-Glo class IIa). The following applies: 1 μM test compound; wells without enzyme = 100% inhibition; read-out: HDAC9 inhibitory rate (%) (1 μM). On the procedure: HDAC9 Enzyme Inhibitory Assay
Enzyme was prepared by transducing full length HDAC9 gene into Sf-9 insect cells and purifying by Ni-NTA affinity column, and HDAC9 enzyme inhibitory activity was evaluated. Enzymes were used after preserved at −70° C. HDAC9 enzyme inhibitory activity of the test compound was measured using HDAC-Glo class IIa (Promega) according to the following experimental method. The test compound diluted with assay buffer (24 mM Tris-HCl (pH 7.5), 1 mM MgCl2, 0.35 mM KCl, 135 mM NaCl, 0.6 mM Glutathione, 0.01% Tween-20) was added to a 384-well plate by each 2 μL. Then, HDAC9 enzyme solution diluted with assay buffer was added thereto by each 2 μL, and the plate was incubated at room temperature for 60 min. After incubated, HDAC substrate-Developer solution prepared according to Promega protocol was added to the 384-well plate by each 4 μL, and the enzyme reaction was started. After reacting at room temperature for 20 min, luminescence level was measured using plate reader Envision (PerkinElmer). The inhibitory activity of each compound was calculated as a relative activity value when luminescence level in wells without enzyme is considered as 100% inhibition.

Molecules are shown by their SMILES.

`N#Cc1cccc(CN2Cc3ccc(-c4noc(C(F)(F)F)n4)cc3C2=O)c1` [Example 28, 3-((1-oxo-6-(5-(trifluoromethyl)-1,2,4-oxadiazol-3-yl)-1,3-dihydro-2H-isoindol-2-yl)methyl)benzonitrile]: the inhibition at 1 µM in experiment [1] turned out to be 95%; in experiment [2], 26%; in experiment [3] it was 82%.
For the compound `CC(c1ccccc1)N1Cc2ncc(-c3noc(C(F)(F)F)n3)cc2C1=O` (stereo not drawn) [Example 2, 6-(1-phenylethyl)-3-(5-(trifluoromethyl)-1,2,4-oxadiazol-3-yl)-6,7-dihydro-5H-pyrrolo[3,4-b]pyridin-5-one], the inhibition at 1 µM in experiment [1] turned out to be 100%; in experiment [2], 57%; in experiment [3] it was 92%.
Take `C[C@@H](c1ccccc1)N1Cc2ncc(-c3noc(C(F)(F)F)n3)cc2C1=O` [Example 40, 6-((1S)-1-phenylethyl)-3-(5-(trifluoromethyl)-1,2,4-oxadiazol-3-yl)-6,7-dihydro-5H-pyrrolo[3,4-b]pyridin-5-one]: the inhibition at 1 µM in experiment [1] stood at 97%; in experiment [2], 52%; in experiment [3], 93%.
For the compound `O=C1c2cc(-c3noc(C(F)(F)F)n3)ccc2CN1Cc1nccs1` [Example 36, 2-(1,3-thiazol-2-ylmethyl)-6-(5-(trifluoromethyl)-1,2,4-oxadiazol-3-yl)isoindolin-1-one], the inhibition at 1 µM was 98% in experiment [1], 15% in experiment [2] and 81% in experiment [3].
Consider `C[C@@H](c1ccccc1F)N1Cc2ccc(-c3noc(C(F)(F)F)n3)cc2C1=O` [Example 15, 2-((1S)-1-(2-fluorophenyl)ethyl)-6-(5-(trifluoromethy)-1,2,4-oxadiazol-3-yl)isoindolin-1-one], for which the inhibition at 1 µM came out at 95% in experiment [1], 15% in experiment [2] and 79% in experiment [3].
`C[C@H](c1ccccc1)N1Cc2ncc(-c3noc(C(F)(F)F)n3)cc2C1=O` [Example 39, 6-((1R)-1-phenylethyl)-3-(5-(trifluoromethyl)-1,2,4-oxadiazol-3-yl)-6,7-dihydro-5H-pyrrolo[3,4-b]pyridin-5-one]: the inhibition at 1 µM in experiment [1] is 99%; in experiment [2], 55%; in experiment [3], 90%.
Taken in the same sequence, the figures for `O=C1c2cc(-c3noc(C(F)(F)F)n3)ccc2CN1Cc1ccccc1` [Example 6, 2-benzyl-6-(5-(trifluoromethyl)-1,2,4-oxadiazol-3-yl)isoindolin-1-one] were 102%, 24% and 82%.
As for `CC(c1ccccn1)N1Cc2ccc(-c3noc(C(F)(F)F)n3)cc2C1=O` (stereo not drawn) [Example 34], the inhibition at 1 µM stood at 97% in experiment [1], 16% in experiment [2] and 79% in experiment [3].
For the compound `CC(C)(c1ccccc1)N1Cc2ncc(-c3noc(C(F)(F)F)n3)cc2C1=O` [Example 3, 6-(2-phenylpropan-2-yl)-3-(5-(trifluoromethyl)-1,2,4-oxadiazol-3-yl)-6,7-dihydro-5H-pyrrolo[3,4-b]pyridin-5-one], the figures for the inhibition at 1 µM in experiment [1], in experiment [2] and in experiment [3] were 98%, 36% and 89%, respectively.
For the compound `C[C@@H](c1cccc(F)c1)N1Cc2ccc(-c3noc(C(F)(F)F)n3)cc2C1=O` [Example 16, 2-((1S)-1-(3-fluorophenyl)ethyl)-6-(5-(trifluoromethyl)-1,2,4-oxadiazol-3-yl)isoindolin-1-one], the inhibition at 1 µM in experiment [1] is 95%; in experiment [2], 20%; in experiment [3], 85%.
On the same counts, the results for `COc1cccc(CN2Cc3ccc(-c4noc(C(F)(F)F)n4)cc3C2=O)c1` [Example 9, 2-(3-methoxybenzyl)-6-(5-(trifluoromethyl)-1,2,4-oxadiazol-3-yl)isoindolin-1-one] are 98%, 31% and 81%.
